Patent publication US20030216293A1, “Use of composition comprising at least one substance within the group GnRH-analogues for treatment of obsessive -compulsive disorder (OCD)” (priority 1998, published 2003)

Key:
[1] = tested on: patient with a severe form of OCD; assay: Case study: treatment of a patient with a severe form of OCD; format: in vivo, human
Description: The GnRH-analogue triptorelin is available in a pharmaceutical preparation (Decapeptyl® Depot). In the use of this preparation, an injection is administered containing triptorelin embonate in a dose corresponding to 3.75 mg triptorelin. Injections with this dose are given intramuscularly. They should be repeated every fourth week from the first injection.
A detailed case study of the treatment of a patient with a severe form of OCD is disclosed in the following, as supporting evidence of the effect of the method.
A then person was referred to a psychiatric specialist clinic from another qualified psychiatrist for evaluation and treatment of a severe condition of OCD.
The situation when the patient came to the clinic was that they had sickness pension since more than ten years. They lived alone in a small apartment which they hardly ever left. Obsessions and compulsive rituals occupied most of their time. They repeated against their will meaningless strings of words silently during several hours every day. They felt they had to read the newspaper according to certain ritual patterns; if they did anything wrong, they had to start again from the beginning. Sometimes, it took them the whole day to read the newspaper. […] Among other things, they placed their books so that the covers were strictly oriented along north-south lines. Their contacts with other persons were highly restraint and mainly limited to some relatives.
The clinical diagnosis was that they suffered from a very serious form of OCD. They were also found to be intelligent without any signs of any other mental illness or personality disorder. Thus, it was a clearly defined case of OCD.
During long periods of time the patient had been treated with the drugs which presently are considered to have the best effect against OCD. In the treatment of the patient they had also been given supportive psychotherapy.
In order to overcome this, treatment with the long-acting GnRH-analogue triptorelin (Decapeptyl® Depot) was given every fourth week as deep intramuscular depot injections with a dose corresponding to 3.75 mg triptorelin in each injection.

[2] = tested on: symptoms of androgenic hyperactivity; assay: Case study: treatment against the patient's symptoms of androgenic hyperactivity; format: in vivo, human; conditions: one patient (male pattern baldness, sebaceous skin, acne, sexual drive)
Description: An endocrinological investigation was performed, based upon their symptoms of androgenic hyperactivity.

[3] = one patient, 3.75 mg i.m. depot every fourth week, after two plus another two months

Row | Structure (SMILES) | effect on OCD ([1]; one patient, given as anti-androgenic treatment) | improvement of OCD on previous treatment ([1]; same patient, treated before triptorelin) | effect on symptoms of androgenic hyperactivity [2] | OCD-symptoms, initial phase of treatment ([1]; one patient, 3.75 mg deep intramuscular depot injection every fourth week, initially) | patient's condition after two months treatment ([1]; one patient, 3.75 mg i.m. depot every fourth week, after two months) | obsessive thoughts after another two months [1, 3] | patient's condition after another two months [1, 3] | clinical outcome of very severe OCD ([1]; one patient, after three months of treatment)
1 | CC(=O)O[C@]1(C(C)=O)CC[C@H]2[C@@H]3C=C(Cl)C4=CC(=O)[C@@H]5C[C@@H]5[C@]4(C)[C@H]3CC[C@@]21C [cyproterone acetate] | without any obvious effect | without any major improvement | without any significant effects |  |  |  |  | 
2 | CC(C)C[C@H](NC(=O)[C@@H](Cc1c[nH]c2ccccc12)NC(=O)[C@H](Cc1ccc(O)cc1)NC(=O)[C@H](CO)NC(=O)[C@H](Cc1c[nH]c2ccccc12)NC(=O)[C@H](Cc1c[nH]cn1)NC(=O)[C@@H]1CCC(=O)N1)C(=O)N[C@@H](CCCNC(=N)N)C(=O)N1CCC[C@H]1C(=O)NCC(N)=O [triptorelin] |  |  |  | accentuation of the patients OCD-symptoms | began to feel better | all obsessive thoughts had disappeared | dramatically better | substantially recovered
